Our source for the inhibition values is ChEMBL document CHEMBL5137000, “Discovery of a novel and potent inhibitor with differential species-specific effects against NLRP3 and AIM2 inflammasome-dependent pyroptosis” (Eur J Med Chem, 2022).

Activity calls are given as the source filed them. No cut-off for these calls is given here.

This experiment has as its target NACHT, LRR and PYD domains-containing protein 3 (Homo sapiens) (UniProt Q96P20). In words: Inhibition of NLRP3 inflammasome activation in LPS-primed human THP-1 cells assessed as reduction in nigericin-induced IL-1beta release in supernatant pretreated for 30 mins followed by nigericin stimulation and measured after 30 min by ELISA. The note with it: time 60.0 min. In kind it is cell-based. On the technique in general: ELISA stands for enzyme-linked immunosorbent assay.

Chain of NACHT, LRR and PYD domains-containing protein 3 (Homo sapiens) (Q96P20 whole entry, the tested form may be a part): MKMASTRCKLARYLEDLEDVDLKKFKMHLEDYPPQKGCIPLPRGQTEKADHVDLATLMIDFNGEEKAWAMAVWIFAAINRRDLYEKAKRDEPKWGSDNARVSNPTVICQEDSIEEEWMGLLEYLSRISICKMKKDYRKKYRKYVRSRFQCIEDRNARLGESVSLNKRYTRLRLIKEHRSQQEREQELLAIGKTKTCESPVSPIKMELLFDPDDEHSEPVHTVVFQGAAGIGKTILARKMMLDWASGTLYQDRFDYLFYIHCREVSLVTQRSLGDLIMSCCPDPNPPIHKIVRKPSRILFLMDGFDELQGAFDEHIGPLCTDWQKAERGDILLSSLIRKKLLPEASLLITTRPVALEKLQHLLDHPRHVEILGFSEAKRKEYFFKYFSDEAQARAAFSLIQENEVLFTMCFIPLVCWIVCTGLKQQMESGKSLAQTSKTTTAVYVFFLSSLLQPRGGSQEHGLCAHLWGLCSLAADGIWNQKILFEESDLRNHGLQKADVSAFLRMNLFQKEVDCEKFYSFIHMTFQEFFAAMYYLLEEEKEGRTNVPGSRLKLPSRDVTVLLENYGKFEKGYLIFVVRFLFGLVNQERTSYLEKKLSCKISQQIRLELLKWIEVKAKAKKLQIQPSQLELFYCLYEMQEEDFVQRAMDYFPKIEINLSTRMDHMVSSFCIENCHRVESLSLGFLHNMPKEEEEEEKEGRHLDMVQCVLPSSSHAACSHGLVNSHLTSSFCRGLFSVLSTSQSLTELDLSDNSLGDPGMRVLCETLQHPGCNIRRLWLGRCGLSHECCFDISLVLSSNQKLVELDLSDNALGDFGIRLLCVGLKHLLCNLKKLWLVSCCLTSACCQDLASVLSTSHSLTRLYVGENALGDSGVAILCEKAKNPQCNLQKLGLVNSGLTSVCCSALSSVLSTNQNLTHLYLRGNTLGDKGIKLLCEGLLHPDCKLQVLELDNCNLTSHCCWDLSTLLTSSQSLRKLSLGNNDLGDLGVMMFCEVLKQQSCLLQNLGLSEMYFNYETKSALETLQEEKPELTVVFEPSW

For `COc1ccc(CC(=O)Nc2cccc(B(O)O)c2)cc1`, the inhibition result was “Active”.
